Measurements: patent EP0870197B2, “USE OF NUCLEAR MAGNETIC RESONANCE TO DESIGN LIGANDS TO TARGET BIOMOLECULES” (priority 1995, dated 1997)
Where two headings read alike, the source gives them in different places. One block for each molecule: values may come before it.

How the values were obtained:
[1] = molecular target: T1, FKBP (Homo sapiens, UniProt P62942); assay: binding affinity by fluorescence titrations; design: made in house
[2] = molecular target: T1, FKBP; assay: two-dimensional 15N/1H NMR correlation titration, dissociation constant; assay type: binding; design: made in house; host or cells: recombinant
Protocol: The second step in the design process was the identification of a second ligand that bound to the target FKBP at a site different from the binding site of compound 29. This was accomplished by screening compounds for their ability to bind to FKBP in the presence of saturating amounts of the ascomycin fragment analog (compound 29). Details of procedures for this second identification step are as set forth in example 2.
In the second round of screening, binding was assayed both in the presence and in the absence of saturating amount of compound 29 (1 mM).
Various benzanilide compounds were tested for binding to FKBP at multiple ligand concentrations. The ^15N/^1H correlation spectra generated at each concentration were evaluated to quantify differences in the spectra as a function of compound concentration. A binding or dissociation constant (Kd) was calculated, using standard procedures well known in the art, from those differences. The values for R1-R4 in Table 5 refer to the corresponding positions in the structure III, above.

[3] = molecular target: T2, DNA-binding domain of the E2 protein (Human papillomavirus 31, UniProt P17383); assay: two-dimensional 15N/1H NMR correlation titration, binding constants for two binding sites
T2 construct: made in house; host or cells: bacteria, T7 expression system
T2 sequence (P17383 292-372): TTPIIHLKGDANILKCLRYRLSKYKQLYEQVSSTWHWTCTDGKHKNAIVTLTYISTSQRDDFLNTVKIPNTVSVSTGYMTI
Protocol: Compounds from the database were screened in a similar manner for binding to the DNA-binding domain of the E2 protein. Those compounds had the structure II below, where R1-R4 and A are defined in Table 2. [drawing 5]
NMR experiments were performed at 29°C on a Bruker AMX500 NMR spectrometer equipped with a triple resonance probe and Bruker sample changer. The ^15N-/^1H HSQC spectra were acquired as 80 x 1024 complex points using sweep widths of 2000 Hz (^15N,t1) and 8333 Hz (^1H, t2). A delay of 1 second between scans and 4 scans per free induction decay were employed in the data collection. All NMR spectra were processed and analyzed on Silicon Graphics computers.
By monitoring the chemical shift changes as a function of ligand concentration, binding constants for the two binding sites were also measured. Table 2 […]

[4] = molecular target: T3, catalytic domain of stromelysin (Homo sapiens, UniProt P08254); assay: two-dimensional 15N/1H NMR correlation titration, dissociation constant; assay type: binding
T3 construct: expression construct coding for amino acid residues 81-256 plus an initiating methionine; initiating methionine (N); made in house; host or cells: E. coli BL21(DE3)/pLysS, pET3d
T3 sequence (P08254 98-273): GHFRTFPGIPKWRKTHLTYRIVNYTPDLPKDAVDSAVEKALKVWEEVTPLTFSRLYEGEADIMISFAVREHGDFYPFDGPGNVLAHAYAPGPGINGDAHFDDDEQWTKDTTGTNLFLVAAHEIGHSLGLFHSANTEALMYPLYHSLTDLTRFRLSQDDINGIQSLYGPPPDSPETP
Protocol: Binding or dissociation constants are measured by following the ^15N/^1H chemical shifts of the protein as a function of ligand concentration. A known concentration ([P]o) of the target molecule is mixed with a known concentration ([L]0) of a previously identified ligand and the two-dimensional ^15N/^1H correlation spectrum was acquired. From this spectrum, observed chemical shift values (δobs) are obtained. The process is repeated for varying concentrations of the ligand to the point of saturation of the target molecule, when possible, in which case the limiting chemical shift value for saturation (δsat) is measured.
In those situations where saturation of the target molecule is achieved, the dissociation constant for the binding of a particular ligand to the target molecule is calculated using the formula: KD = (([P]0−x)([L]0−x))/(x) [formula] where [P]0 is the total molar concentration of target molecule; [L]0 is the total molar concentration of ligand; and x is the molar concentration of the bound species. The value of x is determined from the equation: x = (δobs −δfree)/(Δ) [formula] where δfree is the chemical shift of the free species; δobs is the observed chemical shift; and Δ is the difference between the limiting chemical shift value for saturation (δsat) and the chemical shift value of the target molecule free of ligand (δfree).
The dissociation constant is then determined by varying its value until a best fitto the observed data is obtained using standard curve-fitting statistical methods. In the case where δsat is not directly known, both KD and δsat are varied and subjected to the same curve-fitting procedure.
The catalytic domain of stromelysin was prepared in accordance with the procedures of Example 1. The protein solutions used in the screening assay contained the uniformly ^15N-labeled catalytic domain of stromelysin (0.3 mM), acetohydroxamic acid (500 mM), CaCl2 (20 mM), and sodium azide (0.5%) in a H2O/D2O (9/1) TRIS buffered solution (50 mM, pH=7.0).
Two-dimensional ^15N/^1H NMR spectra were generated at 29°C on a Bruker AMX500 NMR spectrometer equipped with a triple resonance probe and Bruker sample changer. The ^15N/^1H HSQC spectra were acquired as 80 x 1024 complex points using sweep widths of 2000 Hz (^15N, t^1) and 8333 Hz (^1H, t2). A delay of 1 second between scans and 8 scans perfree induction decay(fid) were employed in the data collection. All NMR spectra were processed and analyzed on Silicon Graphics computers using in-house-written software.
A first two-dimensional ^15N/^1 H NMR correlation spectrum was acquired for the ^15N-labeled stromelysin target molecule as described above. The stromelysin target was then exposed to a database of test compounds. Stock solutions of the compounds were made at 100 mM and 1 M. In addition, a combination library was prepared that contained 8-10 compounds per sample at a concentration of 100 mM for each compound.
The NMR samples were prepared by adding 4 µl of the DMSO stock solution of the compound mixtures that contained each compound at a concentration of 100 mM to 0.4 ml H2O/D2O (9/1) buffered solution of the uniformly ^15N-labeled protein. The final concentration of each of the compounds in the NMR sample was about 1 mM.
Various biaryl compounds of structure I were tested for binding to stromelysin at differing concentrations. The ^15N/^1H spectra generated at each concentration were evaluated to quantify differences in the spectra as a function of compound concentration. A binding or dissociation constant (KD)was calculated, using standard procedures well known in the art, from those differences. The values for R1-R3 and A1-A3 in Table 1 refer to the corresponding positions in the structure I, above.
All NMR measurements were performed in the presence of 500 mM acetohydroxamic acid, except for the titration of acetohydroxamic acid itself. Dissociation constants were obtained from the dependence of the observed chemical shift changes upon added ligand. […]

[5] = molecular target: T4, Stromelysin (Homo sapiens, UniProt P08254); assay: stromelysin inhibition by linked hydroxamate-biaryl compounds; assay type: biochemical; settings: for IC50: Table 4, kind of constant not given
T4 construct: expression construct coding for amino acid residues 81-256 plus an initiating methionine; initiating methionine (N); made in house; host or cells: E. coli BL21(DE3)/pLysS, pET3d
T4 sequence (P08254 98-273): as above

[6] = molecular target: T3, catalytic domain of stromelysin; assay: enzymatic assay, cleavage of a fluorogenic substrate; assay type: biochemical
Protocol: In a first study, binding constants were determined, both by the NMR method of the present invention, and by a prior art enzymatic assay. The target molecule was the catalytic domain of stromelysin prepared in accordance with the procedures of Example 1. […] The KD values so obtained were compared to an inhibition constant KI as determined in an enzymatic assay.
The enzymatic assay measured the rate of cleavage of a fluorogenic substrate by following the fluorescence increase upon peptide cleavage which causes a separation between the fluorophore and quencher. Enzymatic activity was measured using a matrix of different concentrations of acetohydroxamic acid and biaryl compounds. The assay is a modification of the method described by H. Weingarten, et al. in Anal. Biochem., 147: 437-440 (1985) employing the fluorogenic substrate properties described by E. Matayoshi, et al. in Science: 247: 954-958 (1990).
Eight acetohydroxamic acid concentrations were used ranging from 0.0 to 1.0 M, and six compound concentrations were used, resulting in a total of 48 points. Individual compound concentration varied due to solubility and potency.
All NMR measurements were performed in the presence of 500 mM acetohydroxamic acid, except for the titration of acetohydroxamic acid itself. Dissociation constants were obtained from the dependence of the observed chemical shift changes upon added ligand. Inhibition constants were then obtained from the inhibition data using standard procedures.

[7] = water solubility; assay type: physicochemical
[8] = molecular target: T4, Stromelysin; assay: inhibition of stromelysin degradation (autolysis); assay type: biochemical; settings: at a concentration of 500 mM
Protocol: Studies were performed to design new ligands that bound to the catalytic domain of stromelysin. Because stromelysin undergoes autolysis, an inhibitor was sought to block the degradation of stromelysin. That inhibitor would facilitate the screening of other potential ligands that bind to other sites on the enzyme.
A variety of hydroxamic acids of the general formula R-(CO)NHOH were screened for binding to stromelysin using the procedures set forth in Example 2.

[9] = amides of the DNA-binding site, read-out: DNA KD
[10] = amides of the β-barrel site, read-out: β-barrel KD
[11] = fluorogenic substrate, matrix of acetohydroxamic acid and compound concentrations, read-out: Assay KI
[12] = Table 1, biaryl compounds of structure I, differing concentrations, read-out: KD
[13] = Table 3, in the presence of 500 mM acetohydroxamic acid, read-out: NMR KD

T1 sequence (P62942 whole entry): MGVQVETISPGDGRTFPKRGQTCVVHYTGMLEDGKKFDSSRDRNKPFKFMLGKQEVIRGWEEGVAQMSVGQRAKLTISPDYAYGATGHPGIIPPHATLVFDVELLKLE

Kd [1]: 2 µM
occupancy of the binding site ([2]; ligand concentrations of 1 mM): > 98%
Structure (SMILES): COC(=O)[C@@H]1CCCCN1C(=O)C(=O)c1cc(OC)c(OC)c(OC)c1 [Compound 29]

Kd [2]: > 5000 µM
Structure (SMILES): O=C(Nc1ccccc1)c1ccccc1 [Compound 36]

Structure (SMILES): O=C(O)c1ccc(-c2ccccc2)cc1 [Compound 15]
Kd [3, 9]: 2000 µM
Kd [3, 10]: > 50000 µM

Structure (SMILES): Oc1ccc(-c2ccccc2)cc1 [Compound 11]
Kd [4]: 300 µM

Kd [2]: 600 µM
Structure (SMILES): O=C(Nc1ccc(O)cc1)c1ccccc1 [Compound 34]

IC50 [5]: 0.025 µM
Structure (SMILES): N#Cc1ccc(-c2ccc(OCCC(=O)NO)cc2)cc1 [Compound 25]

inhibition at 100 µM [5]: 38%
Structure (SMILES): O=C(CCCCOc1ccc(-c2ccccc2)cc1)NO [Compound 23]

IC50 [5]: 110 µM
Structure (SMILES): O=C(CCCOc1ccc(-c2ccccc2)cc1)NO [Compound 22]

Structure (SMILES): c1cc(-c2ccncc2)ccn1 [Compound 10]
Ki [6]: 1800 µM
Kd [4]: 400 µM
Kd ([4]; read-out: NMR KD, Table 3, in the presence of 500 mM acetohydroxamic acid): 400 µM

Structure (SMILES): OCc1cccc(Oc2ccccc2)c1 [Compound 14]
Kd [3, 9]: > 50000 µM
Kd [3, 10]: 2000 µM

IC50 [5]: 3.5 µM
Structure (SMILES): N#Cc1ccc(-c2ccc(OCCCCC(=O)NO)cc2)cc1 [Compound 27]

Structure (SMILES): c1ccc(-c2ccncc2)cc1 [Compound 7]
Ki ([6]; read-out: Assay KI): 320 µM
Kd ([4]; read-out: KD): 200 µM
Kd ([4]; read-out: NMR KD): 170 µM

inhibition at 100 µM [5]: 43%
Structure (SMILES): O=C(CCCCCOc1ccc(-c2ccccc2)cc1)NO [Compound 24]

Structure (SMILES): O=C(c1ccccc1)c1cccc(O)c1 [Compound 13]
Kd [3, 9]: > 50000 µM
Kd [3, 10]: 600 µM

Structure (SMILES): O=C(O)CCC(=O)c1ccc(Oc2ccccc2)cc1 [Compound 20]
Kd [3, 9]: 2700 µM
Kd [3, 10]: 4800 µM

Structure (SMILES): Oc1cccc(-c2ccccc2)c1 [Compound 1]
Kd [4]: 1100 µM

Ki [6, 11]: 700 µM
Kd [4, 12]: 10 µM
Kd [4, 13]: 160 µM
Structure (SMILES): Oc1ccc(-c2ccc(O)cc2)cc1 [Compound 9]

Structure (SMILES): CC(=O)NO [Acetohydroxamic acid, acetohydroxamic acid, reference compound]
Ki [6]: 21100 µM
Kd ([4]; NMR screening of hydroxamic acids, read-out: binding affinity for stromelysin): 17000 µM
Kd ([4]; Table 3, titration of acetohydroxamic acid itself, read-out: NMR KD): 17000 µM
water solubility [7]: good water solubility
degradation of the enzyme [8]: inhibited the degradation of the enzyme

Kd [4, 12]: 400 µM
Structure (SMILES): COc1ccc(-c2ccccc2)cc1N [Compound 6]

Kd [2]: 800 µM
Structure (SMILES): O=C(Nc1ccc(O)cc1)c1ccccc1O [Compound 30]

Ki [6, 11]: 7400 µM
Kd [4, 12]: 1600 µM
Kd [4, 13]: 1600 µM
Structure (SMILES): c1ccc(-c2ccncn2)cc1 [Compound 4]

Kd [2]: 500 µM
Structure (SMILES): O=C(Nc1ccccc1)c1ccc(O)cc1 [Compound 32]

Structure (SMILES): O=C(O)Cc1ccc(-c2ccccc2)cc1 [Compound 17]
Kd [3, 9]: 4200 µM
Kd [3, 10]: 4900 µM

Structure (SMILES): CC(CCc1ccc(Oc2ccccc2)cc1)CC(=O)O (centres unmarked) [Compound 19]
Kd [3, 9]: 500 µM
Kd [3, 10]: 200 µM

Kd [2]: 500 µM
Structure (SMILES): Cc1cc(C(=O)Nc2ccc(O)cc2)ccc1O [Compound 35]

Structure (SMILES): O=C(O)C=Cc1ccc(-c2ccccc2)cc1 [Compound 18]
Kd [3, 9]: 1200 µM
Kd [3, 10]: 6200 µM

Ki [6, 11]: 110 µM
Kd [4, 12]: 10 µM
Kd [4, 13]: 20 µM
Structure (SMILES): N#Cc1ccc(-c2ccc(O)cc2)cc1 [Compound 12]

Kd [1]: 0.019 µM
increase in potency over the ascomycin-fragment analog (compound 29) alone [1]: 100 fold
Structure (SMILES): COc1cc(C(=O)C(=O)N2CCCC[C@H]2C(=O)OCCCOc2ccc(C(=O)Nc3ccc(O)cc3)cc2)cc(OC)c1OC

Structure (SMILES): O=Cc1ccc(-c2ccccc2)cc1 [Compound 5]
Kd [4]: 1700 µM

Kd [4, 12]: 300 µM
Structure (SMILES): CC(=O)Oc1ccc(-c2ccccc2)cc1 [Compound 8]

IC50 [5]: 1.7 µM
Structure (SMILES): N#Cc1ccc(-c2ccc(OCCCCCC(=O)NO)cc2)cc1 [Compound 28]

Kd [2]: 100 µM
Structure (SMILES): O=C(Nc1ccc(O)cc1)c1ccc(O)cc1 [Compound 33]

IC50 [5]: 3.4 µM
Structure (SMILES): N#Cc1ccc(-c2ccc(OCCCC(=O)NO)cc2)cc1 [Compound 26]

Structure (SMILES): O=C(Nc1ccccc1)c1ccccc1O [Compound 37]
Kd [2]: > 5000 µM

Kd [4, 12]: 3200 µM
Structure (SMILES): OCc1ccc(-c2ccccc2)cc1 [Compound 2]

Kd [4, 12]: 1300 µM
Structure (SMILES): Oc1ccc(-c2ccc(Br)cc2)cc1 [Compound 3]

IC50 [5]: 0.31 µM
Structure (SMILES): O=C(CCOc1ccc(-c2ccccc2)cc1)NO [Compound 21]

Structure (SMILES): O=C(O)c1ccc(-c2cc(Cl)cc(Cl)c2)cc1 [Compound 16]
Kd [3, 9]: 100 µM
Kd [3, 10]: > 50000 µM
